Data from the supplement of paper PMC8149375.

What was measured:
Conditions in all cases: treatment: drug + dasatinib (fixed dose, not stated); 5 days
[1] = tested on: 769-P; assay: GI50 of drug in presence of dasatinib; higher = less potent
Experimental: (§1)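 Primary HTS combination arm: 8 RCC cell lines treated with 8 doses (up to 10 uM) of each library drug plus a fixed dose of dasatinib (dose not stated) for 5 days; viability read by CellTiter-Glo and normalised to DMSO. GI50 was fitted with XLfit, AUC is the area under the dose-response curve, and minimum viability is the lowest fraction of DMSO viability across doses.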

[2] = tested on: 786-O; assay: as above
Experimental: as §1

[3] = tested on: A498; assay: as above
Experimental: as §1

[4] = tested on: ACHN; assay: as above
Experimental: as §1

[5] = tested on: CAKI-1; assay: as above
Experimental: as §1

[6] = tested on: SN12C; assay: as above
Experimental: as §1

[7] = tested on: TK-10; assay: as above
Experimental: as §1

[8] = tested on: UO-31; assay: as above
Experimental: as §1

[9] = tested on: 769-P; assay: minimum viability across doses, drug + dasatinib, relative to DMSO (fraction); higher = less growth inhibition
Experimental: as §1

[10] = tested on: 786-O; assay: as above
Experimental: as §1

[11] = tested on: A498; assay: as above
Experimental: as §1

[12] = tested on: ACHN; assay: as above
Experimental: as §1

[13] = tested on: CAKI-1; assay: as above
Experimental: as §1

[14] = tested on: SN12C; assay: as above
Experimental: as §1

[15] = tested on: TK-10; assay: as above
Experimental: as §1

[16] = tested on: UO-31; assay: as above
Experimental: as §1

[17] = tested on: 769-P; assay: AUC of dose-response viability curve, drug + dasatinib, normalised to DMSO (arbitrary (AUC of normalised viability)); higher = less growth inhibition
Experimental: as §1

[18] = tested on: 786-O; assay: as above
Experimental: as §1

[19] = tested on: A498; assay: as above
Experimental: as §1

[20] = tested on: ACHN; assay: as above
Experimental: as §1

[21] = tested on: CAKI-1; assay: as above
Experimental: as §1

[22] = tested on: SN12C; assay: as above
Experimental: as §1

[23] = tested on: TK-10; assay: as above
Experimental: as §1

[24] = tested on: UO-31; assay: as above
Experimental: as §1

O=C(Nc1c[nH]nc1-c1nc2cc(CN3CCOCC3)ccc2[nH]1)NC1CC1 [AT9283] + Cc1nc(Nc2ncc(C(=O)Nc3c(C)cccc3Cl)s2)cc(N2CCN(CCO)CC2)n1 [dasatinib]
GI50 of drug [1]: 128 nM | GI50 of drug [2]: 48.7 nM | GI50 of drug [3]: 633 nM | GI50 of drug [4]: 48.8 nM | GI50 of drug [5]: 134 nM | GI50 of drug [6]: 672 nM | GI50 of drug [7]: 253 nM | GI50 of drug [8]: 306 nM | minimum viability across doses [9]: 0.0379 | minimum viability across doses [10]: 0.00871 | minimum viability across doses [11]: 0.0108 | minimum viability across doses [12]: 0.0114 | minimum viability across doses [13]: 0.0645 | minimum viability across doses [14]: 0.00616 | minimum viability across doses [15]: 0.0526 | minimum viability across doses [16]: 0.0134 | AUC of dose-response viability curve [17]: 1.46 | AUC of dose-response viability curve [18]: 1.19 | AUC of dose-response viability curve [19]: 2.4 | AUC of dose-response viability curve [20]: 1.18 | AUC of dose-response viability curve [21]: 1.67 | AUC of dose-response viability curve [22]: 1.75 | AUC of dose-response viability curve [23]: 1.83 | AUC of dose-response viability curve [24]: 1.87

Cc1ccc(NC(=O)c2cccc(C(C)(C)C#N)c2)cc1Nc1ccc2ncn(C)c(=O)c2c1 [AZ628] + Cc1nc(Nc2ncc(C(=O)Nc3c(C)cccc3Cl)s2)cc(N2CCN(CCO)CC2)n1 [dasatinib]
GI50 of drug [1]: 2470 nM | GI50 of drug [2]: > 10000 nM | GI50 of drug [3]: 6100 nM | GI50 of drug [4]: 146 nM | GI50 of drug [5]: 1120 nM | GI50 of drug [6]: > 10000 nM | GI50 of drug [7]: 1600 nM | GI50 of drug [8]: 1580 nM | minimum viability across doses [9]: 0.214 | minimum viability across doses [10]: 0.593 | minimum viability across doses [11]: 0.409 | minimum viability across doses [12]: 0.174 | minimum viability across doses [13]: 0.0806 | minimum viability across doses [14]: 0.348 | minimum viability across doses [15]: 0.311 | minimum viability across doses [16]: 0.0219 | AUC of dose-response viability curve [17]: 2.33 | AUC of dose-response viability curve [18]: 2.36 | AUC of dose-response viability curve [19]: 3.02 | AUC of dose-response viability curve [20]: 1.59 | AUC of dose-response viability curve [21]: 2.08 | AUC of dose-response viability curve [22]: 2.33 | AUC of dose-response viability curve [23]: 2.25 | AUC of dose-response viability curve [24]: 2.95

Cc1cc(Nc2nc(N[C@@H](C)c3ccc(F)cc3)c(C#N)cc2F)n[nH]1 [AZ 960] + Cc1nc(Nc2ncc(C(=O)Nc3c(C)cccc3Cl)s2)cc(N2CCN(CCO)CC2)n1 [dasatinib]
GI50 of drug [1]: 442 nM | GI50 of drug [2]: 197 nM | GI50 of drug [3]: 987 nM | GI50 of drug [4]: 123 nM | GI50 of drug [5]: 146 nM | GI50 of drug [6]: 651 nM | GI50 of drug [7]: 882 nM | GI50 of drug [8]: 496 nM | minimum viability across doses [9]: 0.0281 | minimum viability across doses [10]: 0.00499 | minimum viability across doses [11]: 0.246 | minimum viability across doses [12]: 0.0473 | minimum viability across doses [13]: 0.00482 | minimum viability across doses [14]: 0.127 | minimum viability across doses [15]: 0.091 | minimum viability across doses [16]: 0.0082 | AUC of dose-response viability curve [17]: 1.77 | AUC of dose-response viability curve [18]: 1.41 | AUC of dose-response viability curve [19]: 2.64 | AUC of dose-response viability curve [20]: 1.48 | AUC of dose-response viability curve [21]: 1.43 | AUC of dose-response viability curve [22]: 1.91 | AUC of dose-response viability curve [23]: 2.17 | AUC of dose-response viability curve [24]: 2.11

CNC(=O)c1cccc(-c2ccc3c(N4CCOC[C@@H]4C)nc(N4CCOC[C@@H]4C)nc3n2)c1 [AZD2014] + Cc1nc(Nc2ncc(C(=O)Nc3c(C)cccc3Cl)s2)cc(N2CCN(CCO)CC2)n1 [dasatinib]
GI50 of drug [1]: 131 nM | GI50 of drug [2]: 44 nM | GI50 of drug [3]: 430 nM | GI50 of drug [4]: 8.2 nM | GI50 of drug [5]: 62.1 nM | GI50 of drug [6]: 88.5 nM | GI50 of drug [7]: 64 nM | GI50 of drug [8]: 268 nM | minimum viability across doses [9]: 0.0727 | minimum viability across doses [10]: 0.0164 | minimum viability across doses [11]: 0.147 | minimum viability across doses [12]: 0.0544 | minimum viability across doses [13]: 0.0331 | minimum viability across doses [14]: 0.119 | minimum viability across doses [15]: 0.0635 | minimum viability across doses [16]: 0.00563 | AUC of dose-response viability curve [17]: 1.63 | AUC of dose-response viability curve [18]: 1.33 | AUC of dose-response viability curve [19]: 2.2 | AUC of dose-response viability curve [20]: 0.938 | AUC of dose-response viability curve [21]: 1.28 | AUC of dose-response viability curve [22]: 1.48 | AUC of dose-response viability curve [23]: 1.28 | AUC of dose-response viability curve [24]: 2.06

COc1cc(CCc2cc(NC(=O)c3ccc(N4C[C@@H](C)N[C@@H](C)C4)cc3)n[nH]2)cc(OC)c1 [AZD4547] + Cc1nc(Nc2ncc(C(=O)Nc3c(C)cccc3Cl)s2)cc(N2CCN(CCO)CC2)n1 [dasatinib]
GI50 of drug [1]: > 10000 nM | GI50 of drug [2]: 3540 nM | GI50 of drug [3]: > 10000 nM | GI50 of drug [4]: 314 nM | GI50 of drug [5]: 34 nM | GI50 of drug [6]: 201 nM | GI50 of drug [7]: 3000 nM | GI50 of drug [8]: 4240 nM | minimum viability across doses [9]: 0.581 | minimum viability across doses [10]: 0.106 | minimum viability across doses [11]: 0.542 | minimum viability across doses [12]: 0.14 | minimum viability across doses [13]: 0.0512 | minimum viability across doses [14]: 0.061 | minimum viability across doses [15]: 0.314 | minimum viability across doses [16]: 0.016 | AUC of dose-response viability curve [17]: 2.51 | AUC of dose-response viability curve [18]: 2.33 | AUC of dose-response viability curve [19]: 3.4 | AUC of dose-response viability curve [20]: 1.72 | AUC of dose-response viability curve [21]: 1.25 | AUC of dose-response viability curve [22]: 1.78 | AUC of dose-response viability curve [23]: 2.37 | AUC of dose-response viability curve [24]: 4.54

Cc1ncc(-c2ccnc(Nc3ccc(S(C)(=O)=O)cc3)n2)n1C(C)C [AZD5438] + Cc1nc(Nc2ncc(C(=O)Nc3c(C)cccc3Cl)s2)cc(N2CCN(CCO)CC2)n1 [dasatinib]
GI50 of drug [1]: 474 nM | GI50 of drug [2]: 128 nM | GI50 of drug [3]: 1550 nM | GI50 of drug [4]: 246 nM | GI50 of drug [5]: 238 nM | GI50 of drug [6]: 1760 nM | GI50 of drug [7]: 529 nM | GI50 of drug [8]: 367 nM | minimum viability across doses [9]: 0.0188 | minimum viability across doses [10]: 0.00349 | minimum viability across doses [11]: 0.0116 | minimum viability across doses [12]: 0.0173 | minimum viability across doses [13]: 0.0627 | minimum viability across doses [14]: 0.0122 | minimum viability across doses [15]: 0.127 | minimum viability across doses [16]: 0.00804 | AUC of dose-response viability curve [17]: 1.82 | AUC of dose-response viability curve [18]: 1.3 | AUC of dose-response viability curve [19]: 2.78 | AUC of dose-response viability curve [20]: 1.46 | AUC of dose-response viability curve [21]: 1.65 | AUC of dose-response viability curve [22]: 2.05 | AUC of dose-response viability curve [23]: 2.02 | AUC of dose-response viability curve [24]: 2.05

NC(=O)Nc1cc(-c2cccc(F)c2)sc1C(=O)N[C@H]1CCCNC1 [AZD7762] + Cc1nc(Nc2ncc(C(=O)Nc3c(C)cccc3Cl)s2)cc(N2CCN(CCO)CC2)n1 [dasatinib]
GI50 of drug [1]: 52.4 nM | GI50 of drug [2]: 25 nM | GI50 of drug [3]: 261 nM | GI50 of drug [4]: 5.85 nM | GI50 of drug [5]: 59.1 nM | GI50 of drug [6]: 315 nM | GI50 of drug [7]: 59.6 nM | GI50 of drug [8]: 99.7 nM | minimum viability across doses [9]: 0.0473 | minimum viability across doses [10]: 0.00579 | minimum viability across doses [11]: 0.0562 | minimum viability across doses [12]: 0.0359 | minimum viability across doses [13]: 0.00368 | minimum viability across doses [14]: 0.00591 | minimum viability across doses [15]: 0.0198 | minimum viability across doses [16]: 0.0113 | AUC of dose-response viability curve [17]: 1.32 | AUC of dose-response viability curve [18]: 0.834 | AUC of dose-response viability curve [19]: 2.29 | AUC of dose-response viability curve [20]: 0.645 | AUC of dose-response viability curve [21]: 1.19 | AUC of dose-response viability curve [22]: 1.56 | AUC of dose-response viability curve [23]: 1.26 | AUC of dose-response viability curve [24]: 2.04
